From PMC11073913 (Archiv der Pharmazie, 2024)
Where “and” joins values, the source holds several entries; their conditions need not be identical. Equal values may be shown once. Read-outs that look alike come from different tables or passages of the source.

What was measured:
[1] = test system: LPS-induced TNF-α production in RAW 264.7 cells; details: for TNF-α level: cells treated with 25 μM compound, LPS-activated RAW 264.7
soybean 15-LOX = target: T1, soybean 15-LOX (Glycine max, UniProt P08170); experiment: In vitro 15-LOX inhibitory assay; format: biochemical
T1 sequence (P08170 1-839): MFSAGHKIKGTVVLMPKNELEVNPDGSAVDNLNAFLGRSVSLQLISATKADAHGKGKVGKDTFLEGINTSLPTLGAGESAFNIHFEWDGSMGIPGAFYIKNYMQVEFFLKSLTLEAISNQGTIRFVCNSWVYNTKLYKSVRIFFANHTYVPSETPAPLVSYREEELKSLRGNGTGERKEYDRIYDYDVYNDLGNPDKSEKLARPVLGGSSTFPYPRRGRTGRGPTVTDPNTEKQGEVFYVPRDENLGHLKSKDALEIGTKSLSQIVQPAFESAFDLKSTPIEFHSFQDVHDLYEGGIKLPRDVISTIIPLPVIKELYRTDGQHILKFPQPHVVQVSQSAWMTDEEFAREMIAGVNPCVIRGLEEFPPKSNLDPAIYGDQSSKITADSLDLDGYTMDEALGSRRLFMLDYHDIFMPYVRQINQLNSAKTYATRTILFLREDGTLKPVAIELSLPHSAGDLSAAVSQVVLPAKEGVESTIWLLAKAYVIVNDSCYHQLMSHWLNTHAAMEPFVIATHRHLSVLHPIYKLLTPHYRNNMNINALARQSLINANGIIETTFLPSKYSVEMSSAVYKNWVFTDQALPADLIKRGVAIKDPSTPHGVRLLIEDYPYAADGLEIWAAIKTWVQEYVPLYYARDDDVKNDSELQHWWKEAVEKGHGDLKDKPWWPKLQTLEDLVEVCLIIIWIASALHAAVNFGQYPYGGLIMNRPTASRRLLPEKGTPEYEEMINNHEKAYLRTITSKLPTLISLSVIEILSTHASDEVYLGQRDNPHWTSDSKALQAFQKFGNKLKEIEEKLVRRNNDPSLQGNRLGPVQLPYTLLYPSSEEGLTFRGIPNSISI

[2] = test system: LPS-induced IL-6 production in RAW 264.7 cells; details: cells treated with 25 μM compound, LPS-activated RAW 264.7
human recombinant COX-2 = target: T2, human recombinant COX-2 (Homo sapiens, UniProt P35354); experiment: In vitro COX-2 inhibitory assay; format: biochemical
T2 sequence (P35354 18-604): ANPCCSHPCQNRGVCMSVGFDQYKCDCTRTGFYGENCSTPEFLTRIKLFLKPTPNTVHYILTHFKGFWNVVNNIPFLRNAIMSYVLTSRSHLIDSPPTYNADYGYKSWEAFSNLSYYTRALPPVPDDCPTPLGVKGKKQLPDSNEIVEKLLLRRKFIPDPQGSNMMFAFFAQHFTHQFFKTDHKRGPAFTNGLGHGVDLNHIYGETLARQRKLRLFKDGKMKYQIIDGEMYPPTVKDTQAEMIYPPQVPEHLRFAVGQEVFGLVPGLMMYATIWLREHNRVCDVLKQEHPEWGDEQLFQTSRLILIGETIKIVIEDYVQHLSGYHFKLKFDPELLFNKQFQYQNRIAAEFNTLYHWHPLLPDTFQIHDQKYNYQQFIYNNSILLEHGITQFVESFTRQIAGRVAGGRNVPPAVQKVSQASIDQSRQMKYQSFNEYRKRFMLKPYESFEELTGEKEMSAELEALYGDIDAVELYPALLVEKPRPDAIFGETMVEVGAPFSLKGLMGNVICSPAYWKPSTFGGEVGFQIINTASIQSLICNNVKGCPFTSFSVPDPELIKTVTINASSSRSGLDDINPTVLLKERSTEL

[3] = test system: LPS-induced ROS production in RAW 264.7 cells; experiment: cells; details: Mus musculus, RAW264.7, 18 h, read-out: ROS (IC50)
ovine COX-1 = target: T3, ovine COX-1 (Ovis aries, UniProt P05979); experiment: In vitro COX-1 inhibitory assay; format: biochemical
T3 sequence (P05979 25-600): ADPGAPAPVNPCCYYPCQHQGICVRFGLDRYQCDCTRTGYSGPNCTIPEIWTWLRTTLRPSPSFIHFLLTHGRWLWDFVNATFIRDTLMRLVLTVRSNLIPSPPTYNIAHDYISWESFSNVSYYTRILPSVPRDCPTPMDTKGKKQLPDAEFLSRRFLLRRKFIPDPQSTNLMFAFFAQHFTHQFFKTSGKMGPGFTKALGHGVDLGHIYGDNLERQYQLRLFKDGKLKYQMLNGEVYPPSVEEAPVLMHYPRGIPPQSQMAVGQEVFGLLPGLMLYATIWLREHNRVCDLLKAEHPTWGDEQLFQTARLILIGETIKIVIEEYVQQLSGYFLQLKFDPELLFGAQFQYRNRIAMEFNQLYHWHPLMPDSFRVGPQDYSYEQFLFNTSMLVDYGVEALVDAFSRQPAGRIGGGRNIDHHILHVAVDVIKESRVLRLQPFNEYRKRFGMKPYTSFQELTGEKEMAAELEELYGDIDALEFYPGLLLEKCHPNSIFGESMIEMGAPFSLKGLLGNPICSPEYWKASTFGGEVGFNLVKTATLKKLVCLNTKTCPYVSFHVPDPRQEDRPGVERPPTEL

[4] = test system: LPS-induced ROS production in RAW 264.7 cells; details: read-out: ROS (IC50), LPS (1 μg/mL) 18 h, mean ± SEM
[5] = read-out: 15-LOX IC50, soybean 15-LOX
[6] = read-out: COX1, IC50, ovine COX-1, mean ± SEM

| Compound | TNF-α level [1] | IC50 (soybean 15-LOX) [µM] | IL-6 level [2] | IC50 (human recombinant COX-2) [µM] | SI (Selectivity index = COX-1 IC50/COX-2 IC50) (human recombinant COX-2; COX-1 IC50/COX-2 IC50) | IC50 [3] [µM] | IC50 (ovine COX-1) [µM] | TNF-α inhibition, fold more potent than celecoxib ([1]; vs celecoxib) [fold] | IC50 (soybean 15-LOX; [5]) [µM] | SI (Selectivity index = COX-1 IC50/COX-2 IC50) (human recombinant COX-2) | IC50 (human recombinant COX-2; read-out: COX2, IC50) [µM] | IC50 [4] [µM] | IC50 (ovine COX-1; [6]) [µM] |
| --- | --- | --- | --- | --- | --- | --- | --- | --- | --- | --- | --- | --- | --- |
| O=C(CSC1=N/C(=C\c2ccc(Cl)cc2)C(=O)N1c1ccccc1)NCc1ccccc1 [Compound 4r, (Z)-N-Benzyl-2-[(4-(4-chlorobenzylidene)-5-oxo-1-phenyl-4,5-dihydro-1H-imidazol-2-yl)thio]acetamide] | 21.02 ± 5.03 pg/mL | 2.47 ± 1.14 | 20.29 ± 5.03 pg/mL | 0.13 ± 0.057 | 78.00 | 72.4 ± 1.85 | 10.1 ± 1.6 |  |  |  |  |  |  |
| COc1cc(NC(=O)CSC2=N/C(=C\c3ccccc3)C(=O)N2c2ccccc2)cc(OC)c1OC [Compound 4g, (Z)-2-[(4-Benzylidene-5-oxo-1-phenyl-4,5-dihydro-1H-imidazol-2-yl)thio]-N-(3,4,5-trimethoxyphenyl) acetamide] | 12.23 pg/mL and 12.23 ± 3.09 pg/mL |  | 11.51 ± 3.09 pg/mL |  |  |  |  | ~2 | 2.82 ± 1.27 | 68.07 | 0.14 ± 0.073 | 65.9 ± 1.55 | 9.83 ± 1.65 |
| O=C(CSC1=N/C(=C\c2ccccc2)C(=O)N1c1ccccc1)Nc1ccccc1 [Compound 4a, (Z)-2-[(4-Benzylidene-5-oxo-1-phenyl-4,5-dihydro-1H-imidazol-2-yl)thio]-N-phenylacetamide] | 57.28 ± 18.75 pg/mL | 5.71 ± 2.56 | 37.82 ± 1.06 pg/mL | 0.12 ± 0.06 | 62.97 | 44.6 ± 1.43 | 7.83 ± 1.19 |  |  |  |  |  |  |
| O=C(CSC1=N/C(=C\c2ccccc2)C(=O)N1c1ccccc1)Nc1ccc(F)cc1 [Compound 4b, (Z)-2-[(4-Benzylidene-5-oxo-1-phenyl-4,5-dihydro-1H-imidazol-2-yl)thio]-N-(4-fluorophenyl) acetamide] | 51.63 ± 10.35 pg/mL |  | 50.90 ± 10.35 pg/mL |  |  |  |  |  | 3.13 ± 1.49 | 99.06 | 0.13 ± 0.068 | 23.8 ± 1.44 | 12.6 ± 1.78 |
| COc1ccc(NC(=O)CSC2=N/C(=C\c3ccc(Cl)cc3)C(=O)N2c2ccccc2)cc1 [Compound 4o, (Z)-2-{[4-(4-Chlorobenzylidene)-5-oxo-1-phenyl-4,5-dihydro-1H-imidazol-2-yl]thio}-N-(4-methoxyphenyl)acetamide] | 29.10 ± 4.54 pg/mL | 3.24 ± 1.46 | 28.37 pg/mL and 28.37 ± 4.54 pg/mL | 0.1 ± 0.044 | 111.27 | 24.2 ± 1.26 | 11 ± 1.53 |  |  |  |  |  |  |
| O=C(CSC1=N/C(=C\c2ccc(Cl)cc2)C(=O)N1c1ccccc1)Nc1ccccc1 [Compound 4j, (Z)-2-{[4-(4-Chlorobenzylidene)-5-oxo-1-phenyl-4,5-dihydro-1H-imidazol-2-yl]thio}-N-phenylacetamide] | 50.31 ± 10.22 pg/mL | 4.75 ± 2.31 | 49.59 pg/mL and 49.59 ± 10.22 pg/mL | 0.13 ± 0.064 | 94.97 | 33.4 ± 1.27 | 12 ± 1.67 |  |  |  |  |  |  |
